The species named for one test is Mus musculus. Briefly: The compound was tested In vitro for the ability to inhibit electrically induced contractions of the mouse vas deferens. The class given is functional.
Test [1] addresses T1, Delta-type opioid receptor (Rattus norvegicus, UniProt P33533). In words: The compound was tested for the ability to displace delta-receptor specific radioligand [3H]DSLET.
Test [2] addresses T2, Mu-type opioid receptor (Rattus norvegicus, UniProt P33535). In words: The compound was tested for the ability to displace Opioid receptor mu 1 specific radioligand [3H]DAGO.
For another test, the species on record is Cavia porcellus. Briefly: The compound was tested In vitro for the ability to inhibit electrically induced contractions of the guinea pig ileum. The class given is functional.
In test [3] the target is T1, Delta-type opioid receptor. In words: The compound was tested for the ability to displace delta-receptor specific radioligand [3H]DPDPE.
Test [4] concerns the target T1, Delta-type opioid receptor. Briefly: The compound was tested for the ability to displace receptor specific radioligand [3H]DPDPE.
For test [5], the target named is T2, Mu-type opioid receptor. Briefly: The compound was tested for the ability to displace mu-receptor specific radioligand [3H]DAGO.
Test [6] concerns the target T1, Delta-type opioid receptor. In words: The compound was tested for the ability to displace opioid receptor delta specific radioligand [3H]-DSLET.
Test [7] is described as follows: (§1) Ratio of inhibition of electrically induced contractions in GPI and MVD. Type of test: functional.
For test [8], the target named is Kappa-type opioid receptor (Rattus norvegicus, UniProt P34975). Briefly: The compound was tested for the ability to displace opioid receptor kappa specific radioligand [3H]DADLE.
The nature of test [9]: as §1.

The values that follow come from ChEMBL document CHEMBL1124680, “Cyclic enkephalin analogues containing alpha-amino-beta-mercapto-beta,beta-pentamethylenepropionic acid at positions 2 or 5” (J Med Chem, 1989).

pIC50, pKi: −log10 of the molar value.

For orientation: pIC50 means −log10 of the IC50, conventionally taken in molar units. Lower therefore signals a large IC50. A word on the pKi: it is the negative decadic logarithm of the Ki, by convention in mol/L.

T1 sequence (P33533 whole entry): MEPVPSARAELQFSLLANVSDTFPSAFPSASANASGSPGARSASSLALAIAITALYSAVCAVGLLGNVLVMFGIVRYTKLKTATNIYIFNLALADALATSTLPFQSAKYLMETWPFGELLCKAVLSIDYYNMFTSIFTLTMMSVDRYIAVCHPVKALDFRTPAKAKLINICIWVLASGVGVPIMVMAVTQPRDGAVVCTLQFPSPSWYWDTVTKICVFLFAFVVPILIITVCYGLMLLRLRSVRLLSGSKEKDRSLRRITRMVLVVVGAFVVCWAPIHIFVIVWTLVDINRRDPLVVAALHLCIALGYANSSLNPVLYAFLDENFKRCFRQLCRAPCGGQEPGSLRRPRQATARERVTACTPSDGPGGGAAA
T2 sequence (P33535 whole entry): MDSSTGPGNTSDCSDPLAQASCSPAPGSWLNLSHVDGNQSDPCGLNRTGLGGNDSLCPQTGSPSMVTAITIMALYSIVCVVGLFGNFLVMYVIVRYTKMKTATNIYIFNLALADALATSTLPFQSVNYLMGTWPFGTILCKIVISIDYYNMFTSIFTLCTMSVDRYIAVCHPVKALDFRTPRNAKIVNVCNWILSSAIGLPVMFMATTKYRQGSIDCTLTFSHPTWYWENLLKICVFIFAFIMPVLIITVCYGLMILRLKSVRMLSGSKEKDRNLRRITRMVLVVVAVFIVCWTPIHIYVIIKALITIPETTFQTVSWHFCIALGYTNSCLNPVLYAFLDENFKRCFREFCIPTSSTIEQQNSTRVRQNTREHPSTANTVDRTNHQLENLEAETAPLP

For `N[C@@H](Cc1ccc(O)cc1)C(=O)N[C@H]1C(=O)NCC(=O)N[C@@H](Cc2ccccc2)C(=O)N[C@H](C(=O)O)CSSC12CCCCC2` (stereo in doubt; 6) [listing 1 of 2 here], the values for the negative logarithm of the IC50 (pIC50) in the test listed under Mus musculus and in the test listed under Cavia porcellus were below 5.37 and 4.15, respectively. Further, the values for the pKi (in test [1]; at Mu-type opioid receptor [2]; in test [3]) were 6.17, 5.40 and 6.41, respectively.

Turning to `N[C@@H](Cc1ccc(O)cc1)C(=O)N[C@H]1C(=O)NCC(=O)N[C@@H](Cc2ccccc2)C(=O)N[C@H](C(=O)O)CSSC12CCCCC2` (stereo in doubt; 5) [listing 1 of 2 here], the negative-log Ki (pKi) in [4] is 7.82; on Mu-type opioid receptor [5] it was 5.74; in test [6] it was 7.50. The negative logarithm of the IC50 (pIC50) in the test listed under Mus musculus was below 5.69; in the test listed under Cavia porcellus, 4.52.

For the compound `N[C@@H](Cc1ccc(O)cc1)C(=O)N[C@H]1C(=O)NCC(=O)N[C@@H](Cc2ccccc2)C(=O)N[C@H](C(=O)O)CSSC12CCCCC2` (stereo in doubt; 5) [listing 2 of 2 here], the Ratio in test [7] is below 14.7.

In turn, `N[C@@H](Cc1ccc(O)cc1)C(=O)N[C@@H]1CSSC2(CCCCC2)[C@H](C(=O)O)NC(=O)[C@H](Cc2ccccc2)NC(=O)CNC1=O` gave a pIC50 in the test filed under Mus musculus (Mus musculus, Vas deferens) of 10.25.

For `N[C@@H](Cc1ccc(O)cc1)C(=O)N[C@@H]1CSSC2(CCCCC2)[C@@H](C(=O)O)NC(=O)[C@H](Cc2ccccc2)NC(=O)CNC1=O`, the negative logarithm of the IC50 (pIC50) in the test filed under Mus musculus (Mus musculus, Vas deferens) is 10.13; in the test filed under Cavia porcellus (Cavia porcellus, Ileum), 7.88.

Turning to `CC1(C)SSC[C@@H](NC(=O)[C@@H](N)Cc2ccc(O)cc2)C(=O)NCC(=O)N[C@@H](Cc2ccccc2)C(=O)N[C@@H]1C(=O)O`, the pKi in test [8] was […]. This compound had a pIC50 in the test filed under Cavia porcellus (Cavia porcellus, Ileum) of 7.17.

Turning to `CC1(C)SSC[C@@H](NC(=O)[C@@H](N)Cc2ccc(O)cc2)C(=O)NCC(=O)N[C@@H](Cc2ccccc2)C(=O)N[C@H]1C(=O)O`, the pKi in [8] is […]. The compound further showed a pIC50 in the test listed under Cavia porcellus (Cavia porcellus, Ileum) of 7.40.

Compound `CC1(C)SSC[C@H](C(=O)O)NC(=O)[C@H](Cc2ccccc2)NC(=O)CNC(=O)[C@@H]1NC(=O)[C@@H](N)Cc1ccc(O)cc1` had a negative logarithm of the Ki (pKi) in test [8] of […]. In addition, the negative-log IC50 (pIC50) in the test listed under Cavia porcellus (Cavia porcellus, Ileum) is 5.87.

As to `N[C@@H](Cc1ccc(O)cc1)C(=O)N[C@H]1C(=O)NCC(=O)N[C@@H](Cc2ccccc2)C(=O)N[C@H](C(=O)O)CSSC12CCCCC2` (stereo in doubt; 6) [listing 2 of 2 here], the Ratio in test [9] was below 16.7.
